Patent publication US20240423992A1, “BIOMARKERS FOR TREATING LIVER DISORDERS WITH THR-B AGONISTS AND RELATED USES” (Madrigal Pharmaceuticals, Inc., priority 2023, published 2024)

Columns and labels:
Format in all cases: in vivo, human
[1] = test system: patients with Nonalcoholic Steatohepatitis; test: Phase 3 trial in Nonalcoholic Steatohepatitis (Example 2): NASH resolution and fibrosis improvement on biopsy
Experimental: A randomized, double-blind, placebo-controlled Phase 3 trial was conducted. Patients were randomly assigned to receive resmetirom 80 mg, resmetirom 100 mg, or placebo administered orally once daily. Screening biopsy results were used as baseline for histologic variables and a second biopsy was performed at Week 52.

[2] = test system: adults with nonalcoholic fatty liver disease (NAFLD)/presumed nonalcoholic steatohepatitis (NASH); test: 52-week Phase 3 trial (Example 1): sex hormone levels; conditions: Week 52
Experimental: (§1) A 52-week randomized, double-blind, placebo-controlled Phase 3 trial was conducted to evaluate the safety and effect of resmetirom, an oral, once-daily, liver-targeted thyroid hormone receptor-β selective agonist, on multiple biomarkers in adults with nonalcoholic fatty liver disease (NAFLD)/presumed nonalcoholic steatohepatitis (NASH). Patients were randomized to three double-blind arms (100 mg resmetirom, 80 mg resmetirom, or placebo) or one open-label arm (100 mg resmetirom). Common concomitant medications across the 4 arms were antidiabetes drugs (such as glucagon-like peptide-1 receptor agonists (GLP-1 RAs), metformin, pioglitazone, and sodium/glucose cotransporter-2 inhibitors (SGLT2i)) and drugs to manage dyslipidemia (statins).
Sex hormone levels after 52 weeks of resmetirom treatment are shown in Table A. Thyroid hormone levels after 52 weeks of resmetirom treatment are reported in Table B.

[3] = test system: adults with nonalcoholic fatty liver disease (NAFLD)/presumed nonalcoholic steatohepatitis (NASH); test: 52-week Phase 3 trial (Example 1): liver volume, open-label arm; conditions: for Liver volume, mean reduction from baseline: open-label 100 mg resmetirom arm
Experimental: as §1
Liver volume was evaluated in the open-label 100 mg resmetirom arm at Week 52. Liver volume was reduced from baseline by a mean of 21% and 23% following 16 and 52 weeks of resmetirom treatment, respectively (FIGS. 3A and 3B). […] Correcting hepatic fat reduction for reduced liver volume led to an average hepatic fat reduction of 61% in the open-label arm.

[4] = Resmetirom 80 mg DB vs Placebo DB
[5] = Resmetirom 100 mg DB vs Placebo DB

What does the source list for `CC(C)c1cc(Oc2c(Cl)cc(-n3nc(C#N)c(=O)[nH]c3=O)cc2Cl)n[nH]c1=O` [Resmetirom, 2-[3,5-dichloro-4-[(6-oxo-5-propan-2-yl-1H-pyridazin-3-yl)oxy]phenyl]-3,5-dioxo-1,2,4-triazine-6-carbonitrile]?
NASH resolution / fibrosis improvement, 100 mg compared with 80 mg ([1]; 100 mg resmetirom group, except in patients ≥65 years): generally outperformed the 80 mg group; patients achieving NASH resolution or fibrosis improvement compared with placebo ([1]; Week 52 biopsy, across subgroups): significantly more resmetirom-treated patients achieving either NASH resolution or fibrosis improvement; response at both endpoints (NASH resolution, fibrosis improvement) by subgroup ([1]; patients with ≥30% liver fat reduction or SHBG increase ≥120%): greater response; Estradiol (female) LSM Difference [2, 4]: 7.1 ng/L; Estradiol (male) LSM Difference [2, 4]: 4.8 ng/L; FSH (female) LSM Difference [2, 4]: −1.1 IU/L; FSH (male) LSM Difference [2, 4]: 0.2 IU/L; Free testosterone (female) LSM Difference [2, 4]: 0.0002 µg/L; Free testosterone (male) LSM Difference [2, 4]: 0.0115 µg/L; LH (female) LSM Difference [2, 4]: −0.9 IU/L; LH (male) LSM Difference [2, 4]: 0.4 IU/L; SHBG (female) LSM Difference in % CFB [2, 4]: 119.5%; SHBG (female) LSM Difference in CFB [2, 4]: 39.9 nmol/L; SHBG (male) LSM Difference in % CFB [2, 4]: 69.7%; SHBG (male) LSM Difference in CFB [2, 4]: 24.5 (3.9) nmol/L; SHBG LSM Difference in % CFB [2, 4]: 96.0%; SHBG LSM Difference in CFB [2, 4]: 32.1 nmol/L; Testosterone (female) LSM Difference [2, 4]: 0.1 µg/L; Testosterone (male) LSM Difference [2, 4]: 1.5 µg/L; Estradiol (female) LSM CFB ([2]; Resmetirom 80 mg DB): 5.0 ng/L; Estradiol (male) LSM CFB ([2]; Resmetirom 80 mg DB): 3.3 ng/L; FSH (female) LSM CFB ([2]; Resmetirom 80 mg DB): 0.9 IU/L; FSH (male) LSM CFB ([2]; Resmetirom 80 mg DB): 0.3 IU/L; Free testosterone (female) LSM CFB ([2]; Resmetirom 80 mg DB): 0.0004 µg/L; Free testosterone (male) LSM CFB ([2]; Resmetirom 80 mg DB): 0.0077 µg/L; LH (female) LSM CFB ([2]; Resmetirom 80 mg DB): 0.8 IU/L; LH (male) LSM CFB ([2]; Resmetirom 80 mg DB): 0.4 IU/L; SHBG (female) LSM % CFB ([2]; Resmetirom 80 mg DB): 133.0%; SHBG (female) LSM CFB ([2]; Resmetirom 80 mg DB): 43.3 nmol/L; SHBG (male) LSM % CFB ([2]; Resmetirom 80 mg DB): 67.1%; SHBG (male) LSM CFB ([2]; Resmetirom 80 mg DB): 21.9 nmol/L; SHBG LSM % CFB ([2]; Resmetirom 80 mg DB): 99.6%; SHBG LSM CFB ([2]; Resmetirom 80 mg DB): 32.7 nmol/L; Testosterone (female) LSM CFB ([2]; Resmetirom 80 mg DB): 0.1 µg/L; Testosterone (male) LSM CFB ([2]; Resmetirom 80 mg DB): 1.4 µg/L; Estradiol (female) LSM Difference [2, 5]: 9.5 ng/L; Estradiol (male) LSM Difference [2, 5]: 10.4 ng/L; FSH (female) LSM Difference [2, 5]: −0.4 IU/L; FSH (male) LSM Difference [2, 5]: 0.5 IU/L; Free testosterone (female) LSM Difference [2, 5]: -0.0006 µg/L; Free testosterone (male) LSM Difference [2, 5]: 0.0029 µg/L; LH (female) LSM Difference [2, 5]: −0.5 IU/L; LH (male) LSM Difference [2, 5]: 0.8 IU/L; SHBG (female) LSM Difference in % CFB [2, 5]: 184.0%; SHBG (female) LSM Difference in CFB [2, 5]: 61.8 nmol/L; SHBG (male) LSM Difference in % CFB [2, 5]: 125.5%; SHBG (male) LSM Difference in CFB [2, 5]: 41.7 (3.8) nmol/L; SHBG LSM Difference in % CFB [2, 5]: 157.5%; SHBG LSM Difference in CFB [2, 5]: 52.4 nmol/L; Testosterone (female) LSM Difference [2, 5]: 0.1 µg/L; Testosterone (male) LSM Difference [2, 5]: 2.1 µg/L; Estradiol (female) LSM CFB ([2]; Resmetirom 100 mg DB): 7.5 ng/L; Estradiol (male) LSM CFB ([2]; Resmetirom 100 mg DB): 8.9 ng/L; FSH (female) LSM CFB ([2]; Resmetirom 100 mg DB): 1.6 IU/L; FSH (male) LSM CFB ([2]; Resmetirom 100 mg DB): 0.6 IU/L; Free testosterone (female) LSM CFB ([2]; Resmetirom 100 mg DB): -0.0003 µg/L; Free testosterone (male) LSM CFB ([2]; Resmetirom 100 mg DB): -0.0009 µg/L; LH (female) LSM CFB ([2]; Resmetirom 100 mg DB): 1.2 IU/L; LH (male) LSM CFB ([2]; Resmetirom 100 mg DB): 0.9 IU/L; SHBG (female) LSM % CFB ([2]; Resmetirom 100 mg DB): 197.6%; SHBG (female) LSM CFB ([2]; Resmetirom 100 mg DB): 65.3 nmol/L; SHBG (male) LSM % CFB ([2]; Resmetirom 100 mg DB): 122.9%; SHBG (male) LSM CFB ([2]; Resmetirom 100 mg DB): 39.2 nmol/L; SHBG LSM % CFB ([2]; Resmetirom 100 mg DB): 161.1%; SHBG LSM CFB ([2]; Resmetirom 100 mg DB): 53.0 nmol/L; Testosterone (female) LSM CFB ([2]; Resmetirom 100 mg DB): 0.1 µg/L; Testosterone (male) LSM CFB ([2]; Resmetirom 100 mg DB): 2.0 µg/L; Estradiol (female) LSM CFB ([2]; Resmetirom 100 mg OL): 11.0 ng/L; Estradiol (male) LSM CFB ([2]; Resmetirom 100 mg OL): 11.7 ng/L; FSH (female) LSM CFB ([2]; Resmetirom 100 mg OL): 1.3 IU/L; FSH (male) LSM CFB ([2]; Resmetirom 100 mg OL): 0.6 IU/L; Free testosterone (female) LSM CFB ([2]; Resmetirom 100 mg OL): -0.0006 µg/L; Free testosterone (male) LSM CFB ([2]; Resmetirom 100 mg OL): 0.024 µg/L; LH (female) LSM CFB ([2]; Resmetirom 100 mg OL): −0.0 IU/L; LH (male) LSM CFB ([2]; Resmetirom 100 mg OL): 0.3 IU/L; SHBG (female) LSM % CFB ([2]; Resmetirom 100 mg OL): 199.3%; SHBG (female) LSM CFB ([2]; Resmetirom 100 mg OL): 68.6 nmol/L; SHBG (male) LSM % CFB ([2]; Resmetirom 100 mg OL): 156.0%; SHBG (male) LSM CFB ([2]; Resmetirom 100 mg OL): 44.7 nmol/L; SHBG LSM % CFB ([2]; Resmetirom 100 mg OL): 182.6%; SHBG LSM CFB ([2]; Resmetirom 100 mg OL): 60.3 nmol/L; Testosterone (female) LSM CFB ([2]; Resmetirom 100 mg OL): 0.1 µg/L; Testosterone (male) LSM CFB ([2]; Resmetirom 100 mg OL): 2.8 µg/L; Liver volume in patient subgroups ([3]; all key patient subgroups of the OL arm): reductions in liver volume were observed; Liver volume, mean reduction from baseline ([3]; 16 weeks): 21%; Liver volume, mean reduction from baseline ([3]; 52 weeks): 23%; average hepatic fat reduction corrected for reduced liver volume ([3]; open-label arm): 61%
